{"source": "patent US20230021448A1", "about": "“COMPOUNDS AND COMPOSITIONS FOR TREATING CONDITIONS ASSOCIATED WITH STING ACTIVITY” (IFM Due, Inc., priority 2019, published 2023)", "data": [{"target": "T1, STING (Homo sapiens, UniProt Q86WV6, G230A/H232R/R293Q/R71H)", "T1 construct": "host or cells: THP1-Dual KO-IFNAR2 cells", "T1 sequence (Q86WV6 whole entry R71H/G230A/H232R/R293Q)": "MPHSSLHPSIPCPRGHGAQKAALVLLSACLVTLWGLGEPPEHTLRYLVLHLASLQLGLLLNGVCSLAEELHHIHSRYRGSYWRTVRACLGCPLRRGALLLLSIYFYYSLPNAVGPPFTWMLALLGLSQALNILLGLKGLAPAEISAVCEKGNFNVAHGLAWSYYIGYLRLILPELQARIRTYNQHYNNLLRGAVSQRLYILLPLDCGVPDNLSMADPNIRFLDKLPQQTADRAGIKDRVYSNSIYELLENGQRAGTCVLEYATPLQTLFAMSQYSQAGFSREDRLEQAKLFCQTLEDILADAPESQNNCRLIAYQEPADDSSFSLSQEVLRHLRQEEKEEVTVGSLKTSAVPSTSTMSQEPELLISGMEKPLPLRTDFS", "experiment": "STING reporter assay: luciferase reporter activity in THP1-Dual KO-IFNAR2 cells stimulated with 2'3'cGAMP", "assay_type": "cell-based", "conditions": "2′3′cGAMP 15 μM final, 24h, read-out: hSTING: EC50", "protocol": "STING pathway activation by the compounds described herein was measured using THIP1-Dua1™ cells (KO-IFNAR2).\nTTIP1-Dual™ KO-IFNAR2 Cells (obtained from invivogen) were maintained in RPMI, 10% FCS, 5 ml P/S, 2 mM L-glut, 10 mM Hepes, and 1 mM sodium pyruvate. Compounds were spotted in empty 384 well tissue culture plates (Greiner 781182) by Echo for a final concentration of 0.0017-100 μM. Cells were plated into the TC plates at 40 μL per well, 2×10E6 cells/mL. For activation with STING ligand, 2′3′cGAMP (MW 718.38, obtained from Invivogen), was prepared in Optimem media.\nThe following solutions were prepared for each 1×384 plate: • Solution A: 2 mL Optimem with one of the following stimuli: • […] • Solution B: 2 mL Optimem with 60 μL Lipofectamine 2000->Incubate 5 min at RT\n2 mL of solution A and 2 ml Solution B was mixed and incubated for 20 min at room temperature (RT). 20 uL of transfection solution (A+B) was added on top of the plated cells, with a final 2′3′cGAMP concentration of 15 μM. The plates were then centrifuged immediately at 340 g for 1 minute, after which they were incubated at 37° C., 5% C02, >98% humidity for 24h. Luciferase reporter activity was then measured. EC50 values were calculated by using standard methods known in the art.\nLuciferase reporter assay: 10 μL of supernatant from the assay was transferred to white 384-plate with flat bottom and squared wells. One pouch of QUANTI-Luc™ Plus was dissolved in 25 mL of water. 100 μL of QLC Stabilizer per 25 mL of QUANTI-Luc™ Plus solution was added. 50 μL of QUANTI-Luc™ Plus/QLC solution per well was then added. Luminescence was measured on a Platereader (e.g., Spectramax I3X (Molecular Devices GF3637001)).\nLuciferase reporter activity was then measured. EC50 values were calculated by using standard methods known in the art.", "units": {"EC50": "nM"}, "values": [{"smiles": "O=C(Nc1cccc(C(F)(F)F)c1)C(=O)Nc1c[nH]c2cc(F)c(F)cc12", "note": "[Compound 102]", "EC50": "200 to 1000"}, {"smiles": "Cc1cc(NC(=O)C(=O)Nc2c[nH]c3cc(F)c(F)cc23)cc(C(F)(F)F)c1", "note": "[Compound 103, N^1-(5,6-difluoro-1H-indol-3-yl)-N^2-(3-methyl-5-(trifluoromethyl)phenyl)oxalamide]", "EC50": "40 to 200"}, {"smiles": "O=C(Nc1ccc(C2CCCCC2)nc1)C(=O)Nc1c[nH]c2cc(F)c(F)cc12", "note": "[Compound 104]", "EC50": "200 to 1000"}, {"smiles": "O=C(Nc1ccc(C2CCOCC2)cc1)C(=O)Nc1c[nH]c2cc(F)c(F)cc12", "note": "[Compound 105]", "EC50": "40 to 200"}, {"smiles": "Cc1ccc(CNC(=O)C(=O)Nc2c[nH]c3cc(F)c(F)cc23)cc1C(F)(F)F", "note": "[Compound 107]", "EC50": "40 to 200"}, {"smiles": "O=C(NCc1ccc(-c2ccccc2C(F)(F)F)cc1)C(=O)Nc1c[nH]c2cc(F)c(F)cc12", "note": "[Compound 108]", "EC50": "200 to 1000"}, {"smiles": "O=C(Nc1c[nH]c2cc(F)c(F)cc12)C(=O)NC1CCC2(CCCCC2)CC1", "note": "[Compound 109]", "EC50": "200 to 1000"}, {"smiles": "O=C(NCCC1CCC(F)(F)CC1)C(=O)Nc1c[nH]c2cc(F)c(F)cc12", "note": "[Compound 110]", "EC50": "200 to 1000"}, {"smiles": "O=C(NCC1CC2C=CC1C2)C(=O)Nc1c[nH]c2cc(F)c(F)cc12", "note": "(stereo not drawn) [Compound 111]", "EC50": "200 to 1000"}, {"smiles": "O=C(NCC12CC3CC(CC(C3)C1)C2)C(=O)Nc1c[nH]c2cc(F)c(F)cc12", "note": "[Compound 112]", "EC50": "1000 to 5000"}, {"smiles": "CCC1CCC(NC(=O)C(=O)Nc2c[nH]c3cc(F)c(F)cc23)CC1", "note": "(stereo not drawn) [Compound 113]", "EC50": "200 to 1000"}, {"smiles": "CN(C(=O)C(=O)Nc1c[nH]c2cc(F)c(F)cc12)c1ccc(C(F)(F)F)cc1", "note": "[Compound 114]", "EC50": "1000 to 5000"}, {"smiles": "O=C(Nc1ccc(C(F)(F)F)cc1)C(=O)Nc1c[nH]c2cc(F)c(F)cc12", "note": "[Compound 115, N1-(5,6-difluoro-1H-indol-3-yl)-N2-(4-(trifluoromethyl)phenyl) oxalamide]", "EC50": "40 to 200"}, {"smiles": "O=C(Nc1ccc(C(F)(F)F)cc1)C(=O)Nc1c[nH]c2ccccc12", "note": "[Compound 116, N1-(1H-indol-3-yl)-N2-(4-(trifluoromethyl)phenyl)oxalamide]", "EC50": "200 to 1000"}, {"smiles": "CCC1CCN(C(=O)C(=O)Nc2c[nH]c3cc(F)c(F)cc23)CC1", "note": "[Compound 117]", "EC50": "1000 to 5000"}, {"smiles": "O=C(NCCC1CCCCC1)C(=O)Nc1c[nH]c2cc(F)c(F)cc12", "note": "[Compound 118]", "EC50": "40 to 200"}, {"smiles": "O=C(NCc1ccc(C(F)(F)F)cn1)C(=O)Nc1c[nH]c2cc(F)c(F)cc12", "note": "[Compound 119, N-(5,6-difluoro-1H-indol-3-yl)-N′-[[5-(trifluoromethyl)pyridin-2-yl]methyl]ethanediamide]", "EC50": "40 to 200"}, {"smiles": "O=C(Nc1c[nH]c2cc(F)c(F)cc12)C(=O)NC1CCC(Cc2ccccc2)CC1", "note": "(stereo not drawn) [Compound 122]", "EC50": "200 to 1000"}, {"smiles": "O=C(NCc1ccc(C(F)(F)F)c(Cl)c1)C(=O)Nc1c[nH]c2cc(F)c(F)cc12", "note": "[Compound 123]", "EC50": "40 to 200"}, {"smiles": "Cc1ccc(CNC(=O)C(=O)Nc2c[nH]c3ccc(Br)cc23)cc1C(F)(F)F", "note": "[Compound 124]", "EC50": "200 to 1000"}, {"smiles": "CC(C)(NC(=O)C(=O)Nc1c[nH]c2cc(F)c(F)cc12)c1ccc(C(F)(F)F)cc1", "note": "[Compound 125]", "EC50": "200 to 1000"}, {"smiles": "O=C(NCc1cc(C(F)(F)F)ccn1)C(=O)Nc1c[nH]c2cc(F)c(F)cc12", "note": "[Compound 126]", "EC50": "40 to 200"}, {"smiles": "O=C(Nc1c[nH]c2cc(F)c(F)cc12)C(=O)N[C@H]1CCN(c2ccccc2)C1", "note": "[Compound 127]", "EC50": "40 to 200"}, {"smiles": "O=C(Nc1c[nH]c2cc(F)c(F)cc12)C(=O)N[C@@H]1CCN(c2ccccc2)C1", "note": "[Compound 128]", "EC50": "1000 to 5000"}, {"smiles": "CC(C)n1cc(-c2ccc3[nH]cc(NC(=O)C(=O)NCc4ccc(C(F)(F)F)c(Cl)c4)c3c2)cn1", "note": "[Compound 129]", "EC50": "200 to 1000"}, {"smiles": "Cc1ccc(Cl)cc1NC(=O)C(=O)Nc1c[nH]c2cc(F)c(F)cc12", "note": "[Compound 130, N1-(5-chloro-2-methylphenyl)-N2-(5,6-difluoro-1H-indol-3-yl)oxalamide]", "EC50": "200 to 1000"}, {"smiles": "O=C(NCc1ccc(F)c(OC(F)(F)F)c1)C(=O)Nc1c[nH]c2cc(F)c(F)cc12", "note": "[Compound 131, N1-(5,6-difluoro-1H-indol-3-yl)-N2-(4-fluoro-3-(trifluoromethoxy)benzyl) oxalamide]", "EC50": "200 to 1000"}]}]}
